Test results from patent publication US8759363B2, “Quinazoline-based T cell proliferation inhibitors” (Yissum Research Development Company of the Hebrew …, priority 2010, dated 2014).
Read-outs that look alike come from different tables or passages of the source.

Experiments:
[1] = test system: IL-2 secretion by 2C splenocytes stimulated by irradiated BALB/c splenocytes; assay: IL-2 levels in MLR supernatants; assay type: cell-based, mouse; details: 24, 48 and 72 h MLR; compound 2 up to 1 μM
Protocol: In the mixed lymphocyte reaction, stimulator cells cause responder cells to proliferate, owing to alloreactivity [Reich-Zeliger et al., 2004]. Splenocytes from 2c mice were stimulated by irradiated splenocytes from BALB/c mice in the presence of the evaluated compound at the concentrations specified. Cultures were incubated for 72 hours in 96-well plates.
Jurkat or PBMC cells were treated for 12 h with 1 μM, 0.5 μM or no inhibitor. Cells (1×10^6) were plated in 24-well plates (Nunc) and stimulated by C305 (dilution 1:500), anti-CD28 (1:100), PMA (50 ng/ml) or ionomycin (1 μM) for 12 h. Alternately, cells were stimulated for 24, 48 and 72 h in MLR. After stimulation cells were centrifuged at 130×g for 5 minutes at room temperature.
Supernatants were collected and IL-2 was assayed using the IL-2 ELISA kit (BioSource International USA, KH0022) according to the manufacturer's instructions. Absorbance was read at 450 nm in an ELISA plate reader (ELx800 BIO-TEK Instruments Inc.).
In vivo, T cells are stimulated by neighboring cells. In order to test the effect of 2 on cell-stimulated IL-2 secretion, the supernatants of splenocytes after 24, 48 and 72 h MLR were collected and analyzed for their IL-2 levels (FIG. 5C). […] At higher concentrations, no viable cells remained.

[2] = test system: Keratinocytes; assay: Keratinocyte proliferation, BrdU uptake; assay type: cell-based; details: Homo sapiens, serum activated, read-out: IC50 of stimulated cells
Protocol: Primary human keratinocytes were maintained in keratinocyte growth medium (KGM): DMEM, 25% Nutrient mixture F-12 (HAM), 10% fetal bovine serum, 5 μg/ml insulin, 0.4 μg/ml hydrocortisone, 0.1 nM cholera toxin, 10 ng/ml epidermal growth factor, 1.8×10^−4 M adenine, 5 μg/ml transferrin, 2 nM T3, 100,000 U/l penicillin, […] streptomycin, 0.1 mg/ml amphotericin. The primary keratinocytes were cultured from small biopsy specimens.
(§1) Cells were depleted of fetal calf serum (FCS) for 12 hours. They were then stimulated to proliferate by addition of ConA (10 μg/ml) for PBMC from healthy individuals and for Jurkat cells, FCS (10%) for HEK293 and A375 cells, PDGF (30 ng/ml) for NIH 3T3 cells, and EGF (30 ng/ml) for MDA-MB-231, Cells (1×10^5) were cultured in 96-well plates for 3 days in the presence or absence of inhibitors at the concentrations specified in the text. Each condition was tested in duplicate wells.
Proliferation was assessed by BrdU incorporation using a colorimetric ELISA kit (Roche, Germany). Subsequent to labeling with 10 μM BrdU, DNA was denatured and the cells were incubated with anti-BrdU-POD, prior to the addition of colorimetric substrate (TMB). The reaction product was quantified by measuring absorbance at 450 nm in an ELISA plate reader (ELx800 BIO-TEK Instruments Inc.). […]

[3] = test system: OT2 (resting) cells; assay: MLR with resting control cells, resting OT2 cells; assay type: cell-based, mouse; details: 0.5 μM, 72 h MLR with IL-7; no inhibitor 1025
Text: The aim of this test was to determine whether 2 affects only the proliferating cells or there is a general mechanism affecting all cell numbers. For this purpose we mixed 3 cell types: […]: BALB/c, 2C and OT1; […]: CB6F1, TEA and OT2. The OT1 and OT2 are splenocytes that were isolated from OT1 and OT2 mice (Jackson Laboratories, Bar Harbor, Me.),
Thus, the ability to monitor the fate of proliferation and resting cells by FACS was enabled due to the use of the MLR described above for CD4+ and CD8+ and the addition of OT2 and OT1 splenocytes, respectively.
Proliferating cells often secrete cytokines that induce survival of neighbouring cells; since the proliferation was expected to be inhibited we added 50 ng/ml of IL-7. This concentration is sufficient to keep the cells alive, but not to induce proliferation.
The number of TEA and OT2 cells that were treated with 0.5 μM 2 was 1452 and 826, respectively, while the number of 2C and OT1 cells that were treated with 0.5 μM 21 was 3003 and 903, respectively. This is depicted as a bar-graph in FIG. 9C.

[4] = test system: PBMC and Jurkat cells; assay: Cell cycle analysis by FACS; assay type: cell-based, human; details: treated cells, 0.5 μM S101
Protocol: The effects of the inhibition of the cell cycle were analyzed with a fluorescence-activated cell sorter (FACS). Cells were grown in 60 mm diameter plates (Nunc) and were treated with inhibitor for 12 and 24 h. After the indicated time, cells were pooled, pelleted by centrifugation, washed in phosphate-buffered saline (PBS), and fixed with cold 70% ethanol for a minimum of 12 h. Cells were re-pelleted and resuspended in PBS. 50 μg/ml of RNase A was added in the dark for 30 minutes followed by 5 μg/ml of propidium iodide for FACS analysis (Becton Dickinson FACScan).
The fraction of cells in G2 increased from 30% in the untreated cells to 50% in the treated cells.

[5] = test system: Jurkat cells; assay: Jurkat cell proliferation, BrdU incorporation; assay type: cell-based, human; details: BrdU uptake
Protocol: as §1
Proliferation was assessed by BrdU incorporation using a colorimetric ELISA kit (Roche, Germany). Subsequent to labeling with 10 μM BrdU, DNA was denatured and the cells were incubated with anti-BrdU-POD, prior to the addition of colorimetric substrate (TMB). The reaction product was quantified by measuring absorbance at 450 nm in an ELISA plate reader (ELx800 BIO-TEK Instruments Inc.).
Since we were not prejudiced towards any specific protein kinase, we used a biological assay for T cell proliferation. We tested our libraries for inhibition of proliferation of PBMC and Jurkat cells (Table 3). Cell proliferation was measured by BrdU uptake. […] PBMC cells were stimulated by a non-specific T cell mitogen, Concanavalin A (ConA). All of the compounds that were tested inhibited proliferation at micromolar or sub-micromolar concentrations.

For `COc1cc(-c2nc(Nc3ccc(C)cc3)c3ccccc3n2)cc(OC)c1OC` [Compound 2, N-p-tolyl-2-(3,4,5-trimethoxyphenyl)quinazolin-4-amine], the “IL-2 levels in MLR supernatants” value [1] was “no visible decrease”, the IC50 [2] was > 10000 nM and the “number of OT2 (resting) cells” value [3] was 826. For the same compound, the sub-G1 population ([4]; untreated 2%) was 9.5%, the “fraction of cells in G2” value ([4]; untreated 30%) was 50% and the IC50 ([5]; nM ± SD, read-out: IC50 Jurkat cells proliferation inhibition) was 29 ± 0.23 nM. The IC50 ([5]; Homo sapiens, Jurkat, nM ± SD, read-out: IC50 Jurkat cells proliferation inhibition) was 30 nM, the IC50 ([5]; Homo sapiens, Jurkat, non-stimulated, read-out: IC50 of non-stimulated cells) was 50 nM and the IC50 ([5]; Homo sapiens, Jurkat, stimulated, read-out: IC50 of stimulated cells) was 100 nM.
